Test system: MSCs
Assay: Whole genome expression analysis (Illumina microarray) of treated MSCs
Format: cell-based, Human
Protocol: MSCs were seeded in T25 flasks at 5000 cells/cm^2 and allowed to attach overnight in proliferation medium. […] After 48 hours, RNA was isolated as described above. From 500 ng of RNA, cRNA was synthesized using the Illumina TotalPrep RNA amplification Kit (Ambion), according to the manufacturer's protocol and the quality of RNA and cRNA was verified on a Bioanalyzer 2100 (Agilent). Microarrays were performed using Illumina HT-12 v4 expression Beadchips, according to the manufacturer's protocol. Briefly, 750 ng of cRNA was hybridized on the array overnight after which the array was washed and blocked. Then, by addition of streptavidin Cy-3 a fluorescent signal was developed. Arrays were scanned on an Illumina iScan reader and raw intensity values were background corrected in GenomeStudio (Illumina). Further data processing and statistical testing were performed with R and Bioconductor statistical software (www.bioconductor.org), using package lumi. Raw intensity values were transformed using variance stabilization and a quantile normalization was performed. A linear modelling approach with empirical Bayesian methods, as implemented in Limma package (54), was applied for differential expression analysis of the resulting probe-level expression values. A gene list, containing only those genes with an absolute 1.5-fold change between different treatments, was uploaded to Ingenuity Pathway Analysis (IPA) software and used for core analysis. Pathways or networks with a p-value of 0.05 were considered statistically significant.

With c1cnc2c(c1)ccc1cccnc12 [PHE, 1, 10-phenanthroline] the “logFC(D142_PHE - D142_BAS) DLX5” value (ProbeID ILMN_1759598) was -2,28, the “logFC(D142_PHE - D142_BAS) C4orf18” value (ProbeID ILMN_1761941) was -2,15 and the “logFC(D142_PHE - D142_BAS) AK3L1” value (ProbeID ILMN_1764090) was 3,40. For the same compound, the “logFC(D142_PHE - D142_BAS) JARID2” value (ProbeID ILMN_1764177) was 2,12, the “logFC(D142_PHE - D142_BAS) MUM1” value (ProbeID ILMN_1764764) was -2,05 and the “logFC(D142_PHE - D142_BAS) OLFML2B” value (ProbeID ILMN_1765557, PHE vs BAS) was -3,04. The “logFC(D142_PHE - D142_BAS) LOC399942” value (ProbeID ILMN_1765701, PHE vs BAS) was -2,98, the “logFC(D142_PHE - D142_BAS) ENO2” value (ProbeID ILMN_1765796) was 4,72 and the “logFC(D142_PHE - D142_BAS) KCNK2” value (ProbeID ILMN_1765990, PHE vs BAS) was -2,82. The “logFC(D142_PHE - D142_BAS) C10orf10” value (ProbeID ILMN_1767556) was 3,71, the “logFC(D142_PHE - D142_BAS) HIST2H2AC” value (ProbeID ILMN_1768973) was 3,39 and the “logFC(D142_PHE - D142_BAS) ISOC2” value (ProbeID ILMN_1769158) was -2,08. The “logFC(D142_PHE - D142_BAS) KRT34” value (ProbeID ILMN_1770228) was 2,77, the “logFC(D142_PHE - D142_BAS) CNN2” value (ProbeID ILMN_1770290, PHE vs BAS) was -3,30 and the “logFC(D142_PHE - D142_BAS) ANGPTL2” value (ProbeID ILMN_1772612, PHE vs BAS) was -2,93. For the same compound, the “logFC(D142_PHE - D142_BAS) EML3” value (ProbeID ILMN_1772644) was -2,23, the “logFC(D142_PHE - D142_BAS) ZNF395” value (ProbeID ILMN_1772876) was 3,66 and the “logFC(D142_PHE - D142_BAS) GAS1” value (ProbeID ILMN_1772910, PHE vs BAS) was -3,75. The “logFC(D142_PHE - D142_BAS) C16orf72” value (ProbeID ILMN_1773407) was 2,40, the “logFC(D142_PHE - D142_BAS) LOC441054” value (ProbeID ILMN_1774390) was 2,68 and the “logFC(D142_PHE - D142_BAS) FBLN2” value (ProbeID ILMN_1774602, PHE vs BAS) was -2,40. The “logFC(D142_PHE - D142_BAS) SMOX” value (ProbeID ILMN_1775380) was 2,29, the “logFC(D142_PHE - D142_BAS) SLC2A3” value (ProbeID ILMN_1775708) was 3,23 and the “logFC(D142_PHE - D142_BAS) BTG1” value (ProbeID ILMN_1775743) was 2,36. For the same compound, the “logFC(D142_PHE - D142_BAS) MYL9” value (ProbeID ILMN_1776953) was -2,25, the “logFC(D142_PHE - D142_BAS) STAT1” value (ProbeID ILMN_1777325) was -2,01 and the “logFC(D142_PHE - D142_BAS) LOC731007” value (ProbeID ILMN_1777499) was 2,46. The “logFC(D142_PHE - D142_BAS) KCTD11” value (ProbeID ILMN_1777513) was 3,02, the “logFC(D142_PHE - D142_BAS) LOC644774” value (ProbeID ILMN_1779258) was 3,09 and the “logFC(D142_PHE - D142_BAS) CPA4” value (ProbeID ILMN_1784294) was 5,44. The “logFC(D142_PHE - D142_BAS) TUBA4A” value (ProbeID ILMN_1784300) was 2,80, the “logFC(D142_PHE - D142_BAS) SPOCD1” value (ProbeID ILMN_1784948, PHE vs BAS) was -3,46 and the “logFC(D142_PHE - D142_BAS) PRKD1” value (ProbeID ILMN_1785891, PHE vs BAS) was -2,51. The “logFC(D142_PHE - D142_BAS) UHRF1” value (ProbeID ILMN_1786065) was -2,25, the “logFC(D142_PHE - D142_BAS) PSME2” value (ProbeID ILMN_1786612, PHE vs BAS) was -2,64 and the “logFC(D142_PHE - D142_BAS) MFAP2” value (ProbeID ILMN_1787981) was -2,29. For the same compound, the “logFC(D142_PHE - D142_BAS) COL11A1” value (ProbeID ILMN_1789507, PHE vs BAS) was -3,53, the “logFC(D142_PHE - D142_BAS) GBE1” value (ProbeID ILMN_1789702) was 2,68 and the “logFC(D142_PHE - D142_BAS) Mar-04” value (ProbeID ILMN_1789991) was 2,06. For the same compound, the “logFC(D142_PHE - D142_BAS) PRRX2” value (ProbeID ILMN_1790338, PHE vs BAS) was -2,93, the “logFC(D142_PHE - D142_BAS) C6orf125” value (ProbeID ILMN_1790461) was -2,25 and the “logFC(D142_PHE - D142_BAS) LUM” value (ProbeID ILMN_1790529, PHE vs BAS) was -3,46. The “logFC(D142_PHE - D142_BAS) CRISPLD2” value (ProbeID ILMN_1790689) was -2,32, the “logFC(D142_PHE - D142_BAS) PNMA2” value (ProbeID ILMN_1790778) was 2,46 and the “logFC(D142_PHE - D142_BAS) CXCL12” value (ProbeID ILMN_1791447, PHE vs BAS) was -3,48. The “logFC(D142_PHE - D142_BAS) DPYSL4” value (ProbeID ILMN_1792356) was 3,91, the “logFC(D142_PHE - D142_BAS) TMEM158” value (ProbeID ILMN_1792455) was 3,06 and the “logFC(D142_PHE - D142_BAS) HIST1H2AC” value (ProbeID ILMN_1792689) was 2,10. The “logFC(D142_PHE - D142_BAS) SERTAD1” value (ProbeID ILMN_1794017) was 2,93, the “logFC(D142_PHE - D142_BAS) NDUFS8” value (ProbeID ILMN_1794132) was -2,07 and the “logFC(D142_PHE - D142_BAS) HAS3” value (ProbeID ILMN_1794501, PHE vs BAS) was -2,42. The “logFC(D142_PHE - D142_BAS) CAMK2N1” value (ProbeID ILMN_1794863) was 2,88, the “logFC(D142_PHE - D142_BAS) OKL38” value (ProbeID ILMN_1795963) was 2,72 and the “logFC(D142_PHE - D142_BAS) HIST1H2BK” value (ProbeID ILMN_1796179) was 2,23. For the same compound, the “logFC(D142_PHE - D142_BAS) GDF5” value (ProbeID ILMN_1796471) was -2,25, the “logFC(D142_PHE - D142_BAS) C3orf58” value (ProbeID ILMN_1797372) was 2,45 and the “logFC(D142_PHE - D142_BAS) HMGCS1” value (ProbeID ILMN_1797728) was -2,20. The “logFC(D142_PHE - D142_BAS) AK3L1” value (ProbeID ILMN_1798249) was 3,18, the “logFC(D142_PHE - D142_BAS) CXCR7” value (ProbeID ILMN_1798360) was 2,96 and the “logFC(D142_PHE - D142_BAS) MCM6” value (ProbeID ILMN_1798654) was -2,31. The “logFC(D142_PHE - D142_BAS) RARRES1” value (ProbeID ILMN_1800091) was -2,22, the “logFC(D142_PHE - D142_BAS) HMOX1” value (ProbeID ILMN_1800512) was 2,82 and the “logFC(D142_PHE - D142_BAS) LDB2” value (ProbeID ILMN_1800697, PHE vs BAS) was -2,38. The “logFC(D142_PHE - D142_BAS) PLIN2” value (ProbeID ILMN_1801077) was 3,49, the “logFC(D142_PHE - D142_BAS) RLF” value (ProbeID ILMN_1801156) was 2,05 and the “logFC(D142_PHE - D142_BAS) SIAH2” value (ProbeID ILMN_1801313) was 2,15. The “logFC(D142_PHE - D142_BAS) METRNL” value (ProbeID ILMN_1801610) was 2,03, the “logFC(D142_PHE - D142_BAS) CCNB2” value (ProbeID ILMN_1801939, PHE vs BAS) was -2,66 and the “logFC(D142_PHE - D142_BAS) GLT8D2” value (ProbeID ILMN_1802654) was -2,05. The “logFC(D142_PHE - D142_BAS) FAM162A” value (ProbeID ILMN_1803647) was 2,36, the “logFC(D142_PHE - D142_BAS) CXCL12” value (ProbeID ILMN_1803825, PHE vs BAS) was -2,38 and the “logFC(D142_PHE - D142_BAS) VEGFA” value (ProbeID ILMN_1803882) was 4,07. The “logFC(D142_PHE - D142_BAS) SRXN1” value (ProbeID ILMN_1804822) was 2,32, the “logFC(D142_PHE - D142_BAS) SLC14A1” value (ProbeID ILMN_1805561, PHE vs BAS) was -2,57 and the “logFC(D142_PHE - D142_BAS) PFKP” value (ProbeID ILMN_1805737) was 2,32. The “logFC(D142_PHE - D142_BAS) TK1” value (ProbeID ILMN_1806037) was -2,14, the “logFC(D142_PHE - D142_BAS) SLC6A8” value (ProbeID ILMN_1806349) was 2,45 and the “logFC(D142_PHE - D142_BAS) FMO3” value (ProbeID ILMN_1808657, PHE vs BAS) was -2,85. The “logFC(D142_PHE - D142_BAS) PGF” value (ProbeID ILMN_1809813) was 3,28, the “logFC(D142_PHE - D142_BAS) NDRG1” value (ProbeID ILMN_1809931) was 4,06 and the “logFC(D142_PHE - D142_BAS) P8” value (ProbeID ILMN_1810560) was 2,09. For the same compound, the “logFC(D142_PHE - D142_BAS) KIAA0367” value (ProbeID ILMN_1810628) was -2,12, the “logFC(D142_PHE - D142_BAS) PDE5A” value (ProbeID ILMN_1810836, PHE vs BAS) was -3,04 and the “logFC(D142_PHE - D142_BAS) LOC402221” value (ProbeID ILMN_1811909) was -2,18. For the same compound, the “logFC(D142_PHE - D142_BAS) FAM20A” value (ProbeID ILMN_1812091) was -2,34, the “logFC(D142_PHE - D142_BAS) HIST1H2BK” value (ProbeID ILMN_1813314) was 2,41 and the “logFC(D142_PHE - D142_BAS) KIAA1199” value (ProbeID ILMN_1813704, PHE vs BAS) was -4,06. For the same compound, the “logFC(D142_PHE - D142_BAS) FKSG30” value (ProbeID ILMN_1814998) was -2,20, the “logFC(D142_PHE - D142_BAS) PIM1” value (ProbeID ILMN_1815023) was 2,29 and the “logFC(D142_PHE - D142_BAS) PLAGL1” value (ProbeID ILMN_1815121) was 2,24. For the same compound, the “logFC(D142_PHE - D142_BAS) DHCR7” value (ProbeID ILMN_1815626) was -2,12, the “logFC(D142_PHE - D142_BAS) ERCC2” value (ProbeID ILMN_1815859) was -2,17 and the “logFC(D142_PHE - D142_BAS)” value (ProbeID ILMN_1816244, no gene name printed) was 2,02.

From patent EP2607478A1, “Phenanthroline treated MSC” (Universiteit Twente, priority 2011, dated 2013)
